From publication PMC6832920, “Synthesis, Docking Studies, and In Vitro Evaluation of Some Novel Thienopyridines and Fused Thienopyridine–Quinolines as Antibacterial Agents and DNA Gyrase Inhibitors” (Molecules, 2019)
Converted amounts (≈) assume the structure as drawn.

Legend:
Bacillus cereus 33018 [1] = assay: MIC determination by dilution procedure; type: cell-based; conditions: B. cereus 33018, dilutions 125-1.95 μg/mL, read-out: minimum inhibitory concentration (MIC)
Experimental: (§1) A 100 μL measure of NB containing each test microorganism was added to the sterile Petri dishes. Antibacterial testing was carried out on all compounds (3a,b–14) using the agar disc-diffusion method [40]. Sterile nutrients were inoculated with 100 μL cell suspension of the chosen test microorganism and poured into Petri dishes (20 cm diameter). Filter paper discs (Whatman, No.3, diameter 5 mm) were loaded with 10 μL containing 100 μg of the tested compounds, as well as the standard drug. Composite compound disks were placed on the surface of inoculated agar plates and kept at low temperatures before incubation in order to support the swelling and diffusion of the microbial growth. The plates were incubated at 37 °C in the incubator. Experiments were performed in duplicate and the diameters of inhibition zones were measured after 24 h. A diameter of inhibition zone (DIZ) assay was performed to evaluate the antimicrobial potential of the compounds against the tested organisms compared with reference antibiotics.

Escherichia coli 8739 [2] = assay: agar disc-diffusion antibacterial assay; type: cell-based; conditions: E. coli 8739, disc loaded with 100 μg, 37 °C, 24 h, read-out: diameter of inhibition zone
Experimental: (§2) The clinical control strains of Gram-negative bacteria (Escherichia coli 8739, Salmonella typhimurium 14028, Pseudomonas aeruginosa 27853) and Gram-positive bacteria (Bacillus subtilis 6633, Bacillus cereus 33018, Staphylococcus aureus 25923), were obtained from microbial inoculums by subculturing microorganisms into nutrient broth (NB) at 37 °C for 18 h, and were adjusted to 0.125 A° at 625 nm (equivalent to a McFarland 0.5) in 2-fold NB. A 100 μL measure of NB containing each test microorganism was added to the sterile Petri dishes. Antibacterial testing was carried out on all compounds (3a,b–14) using the agar disc-diffusion method [40]. Sterile nutrients were inoculated with 100 μL cell suspension of the chosen test microorganism and poured into Petri dishes (20 cm diameter). Filter paper discs (Whatman, No.3, diameter 5 mm) were loaded with 10 μL containing 100 μg of the tested compounds, as well as the standard drug. Composite compound disks were placed on the surface of inoculated agar plates and kept at low temperatures before incubation in order to support the swelling and diffusion of the microbial growth. The plates were incubated at 37 °C in the incubator. Experiments were performed in duplicate and the diameters of inhibition zones were measured after 24 h. A diameter of inhibition zone (DIZ) assay was performed to evaluate the antimicrobial potential of the compounds against the tested organisms compared with reference antibiotics.

Bacillus subtilis 6633 [3] = assay: MIC determination by dilution procedure; type: cell-based; conditions: B. subtilis 6633, dilutions 125-1.95 μg/mL, read-out: minimum inhibitory concentration (MIC)
Experimental: as §1

Escherichia coli 8739 [4] = assay: MIC determination by dilution procedure; type: cell-based; conditions: E. coli 8739, dilutions 125-1.95 μg/mL, read-out: minimum inhibitory concentration (MIC)
Bacillus subtilis 6633 [5] = assay: agar disc-diffusion antibacterial assay; type: cell-based; conditions: B. subtilis 6633, disc loaded with 100 μg, 37 °C, 24 h, read-out: diameter of inhibition zone
Experimental: as §1

Bacillus cereus 33018 [6] = assay: agar disc-diffusion antibacterial assay; type: cell-based; conditions: B. cereus 33018, disc loaded with 100 μg, 37 °C, 24 h, read-out: diameter of inhibition zone
Experimental: as §1

[7] = system: Pseudomonas aeruginosa 27853; assay: MIC determination by dilution procedure; type: cell-based; conditions: dilutions 125-1.95 μg/mL; for MIC: Pseudomonas aeruginosa, 27853, P. aeruginosa 27853, read-out: minimum inhibitory concentration (MIC)
[8] = system: Pseudomonas aeruginosa 27853; assay: agar disc-diffusion antibacterial assay; type: cell-based; conditions: P. aeruginosa 27853, disc loaded with 100 μg, 37 °C, 24 h, read-out: diameter of inhibition zone
Experimental: as §2

[9] = system: Staphylococcus aureus 25923; assay: MIC determination by dilution procedure; type: cell-based; conditions: dilutions 125-1.95 μg/mL; for MIC: Staphylococcus aureus, 25923, S. aureus 25923, read-out: minimum inhibitory concentration (MIC)
Experimental: as §1

[10] = system: Staphylococcus aureus 25923; assay: agar disc-diffusion antibacterial assay; type: cell-based; conditions: S. aureus 25923, disc loaded with 100 μg, 37 °C, 24 h, read-out: diameter of inhibition zone
Experimental: as §2

[11] = system: Salmonella typhimurium 14028; assay: MIC determination by dilution procedure; type: cell-based; conditions: Salmonella enterica; S. typhimurium 14028; dilutions 125-1.95 μg/mL; read-out: minimum inhibitory concentration (MIC)
Experimental: The clinical control strains of Gram-negative bacteria (Escherichia coli 8739, Salmonella typhimurium 14028, Pseudomonas aeruginosa 27853) and Gram-positive bacteria (Bacillus subtilis 6633, Bacillus cereus 33018, Staphylococcus aureus 25923), were obtained from microbial inoculums by subculturing microorganisms into nutrient broth (NB) at 37 °C for 18 h, and were adjusted to 0.125 A° at 625 nm (equivalent to a McFarland 0.5) in 2-fold NB. A 100 μL measure of NB containing each test microorganism was added to the sterile Petri dishes. Antibacterial testing was carried out on all compounds (3a,b–14) using the agar disc-diffusion method [40]. Sterile nutrients were inoculated with 100 μL cell suspension of the chosen test microorganism and poured into Petri dishes (20 cm diameter). Filter paper discs (Whatman, No.3, diameter 5 mm) were loaded with 10 μL containing 100 μg of the tested compounds, as well as the standard drug. Composite compound disks were placed on the surface of inoculated agar plates and kept at low temperatures before incubation in order to support the swelling and diffusion of the microbial growth. The plates were incubated at 37 °C in the incubator. Experiments were performed in duplicate and the diameters of inhibition zones were measured after 24 h.

melting point	MIC (Bacillus cereus 33018 [1])	MIC (Bacillus subtilis 6633 [3])	MIC (Escherichia coli 8739 [4])	MIC [7]	MIC [9]	minimum inhibitory concentration (MIC) ([9]; S. aureus 25923)	MIC [11]	minimum inhibitory concentration (MIC) ([7]; P. aeruginosa 27853)	SMILES	zone of inhibition at 100 µg/disc (Escherichia coli 8739 [2])	zone of inhibition at 100 µg/disc (Bacillus subtilis 6633 [5])	zone of inhibition at 100 µg/disc (Bacillus cereus 33018 [6])	zone of inhibition at 100 µg/disc [8]	zone of inhibition at 100 µg/disc [10]
246 °C									COc1ccc(-c2cc(-c3ccco3)nc(SCC(N)=O)c2C#N)cc1 [Compound 2a, 2-((3-Cyano-6-(furan-2-yl)-4-(4-methoxyphenyl)pyridin-2-yl)thio)acetamide]					
242 °C									N#Cc1c(-c2cccs2)cc(-c2ccco2)nc1SCC(N)=O [Compound 2b, 2-((3-Cyano-6-(furan-2-yl)-4-(thiophen-2-yl)pyridin-2-yl)thio)acetamide]					
143 °C	15.6 µg/mL (≈ 28.2 µM)	15.6 µg/mL (≈ 28.2 µM)	15.6 µg/mL (≈ 28.2 µM)	15.6 µg/mL (≈ 28.2 µM)	15.6 µg/mL (≈ 28.2 µM)	31.25 µg/mL (≈ 56.3 µM)	15.6 µg/mL (≈ 28.2 µM)	31.25 µg/mL (≈ 56.3 µM)	COc1ccc(-c2cc(-c3ccco3)nc3sc4c(NC(=O)CN5CCOCC5)c5c(nc4c23)CCCC5)cc1 [Compound 9a, N-(2-(furan-2-yl)-4-(4-methoxyphenyl)-6,7,8,9-tetrahydropyrido[3′,2′:4,5]thieno[3,2-b]quinolin-10-yl)-2-morpholinoacetamide]		14 mm	16 mm	11 mm	12 mm
118 to 120 °C	62.5 µg/mL (≈ 114 µM)	31.2 µg/mL (≈ 57.2 µM)			62.5 µg/mL (≈ 114 µM)				COc1ccc(-c2cc(-c3ccco3)nc3sc4c(NC(=O)Nc5ccccc5)c5c(nc4c23)CCCC5)cc1 [Compound 11, 1-(2-(Furan-2-yl)-4-(4-methoxyphenyl)-6,7,8,9-tetrahydropyrido[3′,2′:4,5]thieno [3,2-b]quinolin-10-yl)-3-phenylurea]		9 mm	8 mm		8 mm

The next lines start with the compound.

SMILES	melting point	MIC (Bacillus cereus 33018 [1])	MIC (Bacillus subtilis 6633 [3])	MIC (Escherichia coli 8739 [4])	MIC [7]	MIC [9]	minimum inhibitory concentration (MIC) ([9]; S. aureus 25923)	MIC [11]	minimum inhibitory concentration (MIC) ([7]; P. aeruginosa 27853)	zone of inhibition at 100 µg/disc (Escherichia coli 8739 [2])	zone of inhibition at 100 µg/disc (Bacillus subtilis 6633 [5])	zone of inhibition at 100 µg/disc (Bacillus cereus 33018 [6])	zone of inhibition at 100 µg/disc [8]	zone of inhibition at 100 µg/disc [10]
COc1ccc(-c2cc(-c3ccco3)nc3sc4c(N)c5c(nc4c23)CCCC5)cc1 [Compound 5a, 2-(Furan-2-yl)-4-(4-methoxyphenyl)-6,7,8,9-tetrahydropyrido[3′,2′:4,5]thieno[3,2-b]quinolin-10-amine]	231 °C	31.2 µg/mL (≈ 73.1 µM)	31.2 µg/mL (≈ 73.1 µM)	31.2 µg/mL (≈ 73.1 µM)	31.2 µg/mL (≈ 73.1 µM)					12 mm	10 mm	13 mm	12 mm	
COc1ccc(-c2cc(-c3ccco3)nc3sc4c(NC(=O)CNN=Cc5ccc(OC)c(OC)c5)c5c(nc4c23)CCCC5)cc1 [Compound 8a, 2-(2-(3,4-Dimethoxybenzylidene)hydrazinyl)-N-(2-(furan-2-yl)-4-(4-methoxyphenyl)-6,7,8,9-tetrahydropyrido[3′,2′:4,5]thieno[3,2-b]quinolin-10-yl)acetamide]	187 °C	31.2 µg/mL (≈ 48.2 µM)	31.2 µg/mL (≈ 48.2 µM)			31.2 µg/mL (≈ 48.2 µM)					11 mm	9 mm		11 mm
COc1ccc(-c2cc(-c3ccco3)nc3sc4c(NC(=O)CNN=Cc5ccc(C)cc5)c5c(nc4c23)CCCC5)cc1 [Compound 8b, N-(2-(furan-2-yl)-4-(4-methoxyphenyl)-6,7,8,9-tetrahydropyrido[3′,2′:4,5]thieno[3,2-b]quinolin-10-yl)-2-(2-(4-methylbenzylidene)hydrazinyl)acetamide]	122 °C	62.5 µg/mL (≈ 104 µM)	31.2 µg/mL (≈ 51.9 µM)			62.5 µg/mL (≈ 104 µM)					9 mm	9 mm		8 mm
COc1ccc(-c2cc(-c3ccco3)nc3sc4c(NS(=O)(=O)c5ccccc5)c5c(nc4c23)CCCC5)cc1 [Compound 10, N-(2-(Furan-2-yl)-4-(4-methoxyphenyl)-6,7,8,9-tetrahydropyrido[3′,2′:4,5]thieno [3,2-b]quinolin-10-yl)benzenesulfonamide]	303 to 304 °C	62.5 µg/mL (≈ 110 µM)	62.5 µg/mL (≈ 110 µM)			31.2 µg/mL (≈ 55 µM)					8 mm	9 mm		9 mm
